Source: patent publication US9833497B2, “Human originated EGF domain proteins and use of the same” (CHENGDU SOURCEBIO LIMITED-LIABILITY COMPANY, priority 2013, dated 2017)

How the values were obtained:
Assay type in all cases: cell-based
[1] = tested on: E. coli BL21; assay: MIC against Gram-negative bacteria: E. coli BL21; details: for MIC against E. coli BL21 / MIC E. coli BL21 / MIC (μg/mL) E. coli BL21: 5×10^5 CFU/mL
In short: (§1)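 Growth inhibition by human EGF domain proteins was scored in LB liquid culture seeded at 5×10^5 CFU/mL. Protein was applied as a two-fold dilution series in triplicate, with shaking incubation at 37° C; MIC is the lowest concentration giving no growth.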

[2] = tested on: E. coli DH5α; assay: Antibacterial activity: MIC and growth curve against E. coli DH5α in 96-well plate; details: minimal inhibitory concentration against E. coli DH5α; 96-well plate, 5×10^5 CFU/mL, 37° C., judged after 8 h
In short: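 Log-phase DH5α (OD600 about 0.5, 37° C, 185 rpm in LB) was pelleted, resuspended in fresh LB and seeded at 5×10^5 CFU/mL with recombinant protein at 50, 25 and 12.5 μg/mL (two-fold series), in triplicate. Plates were shaken at 175 rpm, 37° C, and OD600 was read every 30 min. MIC was the lowest concentration with no growth.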

[3] = tested on: Aeromonas hydrophila; assay: MIC against Gram-negative bacteria: Aeromonas hydrophila; details: for MIC against A. hydrophila / MIC A. hydrophila / MIC (μg/mL) A. hydrophila: 5×10^5 CFU/mL
In short: as §1

[4] = tested on: Moraxella catarrhalis; assay: MIC against Gram-negative bacteria: Moraxella catarrhalis; details: for MIC against M. catarrhalis / MIC M. catarrhalis / MIC (μg/mL) M. catarrhalis: 5×10^5 CFU/mL
In short: as §1

[5] = tested on: Citrobacter diversus; assay: MIC against Gram-negative bacteria: Citrobacter diversus; details: for MIC against C. diversus / MIC C. diversus / MIC (μg/mL) C. diversus: 5×10^5 CFU/mL
In short: as §1

[6] = tested on: Serratia marcescens; assay: MIC against Gram-negative bacteria: Serratia marcescens; details: for MIC against S. marcescens / MIC S. marcescens / MIC (μg/mL) S. marcescens: 5×10^5 CFU/mL
In short: as §1

[7] = tested on: Enterobacter cloacae; assay: MIC against Gram-negative bacteria: Enterobacter cloacae; details: for MIC against E. cloacae / MIC E. cloacae / MIC (μg/mL) E. cloacae: 5×10^5 CFU/mL
In short: as §1

[8] = tested on: Proteus vulgaris; assay: MIC against Gram-negative bacteria: Proteus vulgaris; details: for MIC against P. vulgaris / MIC P. vulgaris / MIC (μg/mL) P. vulgaris: 5×10^5 CFU/mL
In short: as §1

[9] = tested on: Pseudomonas aeruginosa; assay: MIC against Gram-negative bacteria: Pseudomonas aeruginosa; details: for MIC against P. aeruginosa / MIC P. aeruginosa / MIC (μg/mL) P. aeruginosa: 5×10^5 CFU/mL
In short: as §1

[10] = tested on: Klebsiella pneumonia; assay: MIC against Gram-negative bacteria: Klebsiella pneumonia; details: for MIC against K. pneumonia / MIC K. pneumonia / MIC (μg/mL) K. pneumonia: 5×10^5 CFU/mL
In short: as §1

[11] = tested on: Proteus mirabilis; assay: MIC against Gram-negative bacteria: Proteus mirabilis; details: for MIC against P. mirabilis / MIC P. mirabilis / MIC (μg/mL) P. mirabilis: 5×10^5 CFU/mL
In short: as §1

[12] = E. coli BL21, 96-well plate, 37° C., 10 h
[13] = Aeromonas hydrophila, 96-well plate, 37° C., 10 h
[14] = Moraxella catarrhalis, 96-well plate, 37° C., 10 h
[15] = Citrobacter diversus, 96-well plate, 37° C., 10 h
[16] = Serratia marcescens, 96-well plate, 37° C., 10 h
[17] = Enterobacter cloacae, 96-well plate, 37° C., 10 h
[18] = Proteus vulgaris, 96-well plate, 37° C., 10 h
[19] = Pseudomonas aeruginosa, 96-well plate, 37° C., 10 h
[20] = Klebsiella pneumonia, 96-well plate, 37° C., 10 h
[21] = Proteus mirabilis, 96-well plate, 37° C., 10 h
[22] = E. coli BL21, 10 h cultivation at 37° C.
[23] = A. hydrophila, 10 h cultivation at 37° C.
[24] = M. catarrhalis, 10 h cultivation at 37° C.
[25] = C. diversus, 10 h cultivation at 37° C.
[26] = S. marcescens, 10 h cultivation at 37° C.
[27] = E. cloacae, 10 h cultivation at 37° C.
[28] = P. vulgaris, 10 h cultivation at 37° C.
[29] = P. aeruginosa, 10 h cultivation at 37° C.
[30] = K. pneumonia, 10 h cultivation at 37° C.
[31] = P. mirabilis, 10 h cultivation at 37° C.
[32] = 10 h cultivation at 37° C., two-fold serial dilution

PRT1207 (DIDECSDGFVQCDSRANCINLPGWYHCECRDGYHDNGMFSPSGESCE; listed as Homo sapiens)
MIC against E. coli BL21 [1, 12]: 25 µg/mL | MIC [2]: 12.5 µg/mL | MIC against A. hydrophila [3, 13]: 25 µg/mL | MIC against M. catarrhalis [4, 14]: 25 µg/mL | MIC against C. diversus [5, 15]: 12.5 µg/mL | MIC against S. marcescens [6, 16]: 12.5 µg/mL | MIC against E. cloacae [7, 17]: 25 µg/mL | MIC against P. vulgaris [8, 18]: 12.5 µg/mL | MIC against P. aeruginosa [9, 19]: 12.5 µg/mL | MIC against K. pneumonia [10, 20]: 12.5 µg/mL | MIC against P. mirabilis [11, 21]: 25 µg/mL

PRT1021 (LQNPCYIGTHGCDTNAACRPGPRTQFTCECSIGFRGDGRTCY; listed as Homo sapiens)
MIC [1, 22]: 12.5 µg/mL | MIC [2]: 25 µg/mL | MIC [3, 23]: 12.5 µg/mL | MIC [4, 24]: 12.5 µg/mL | MIC [5, 25]: 50 µg/mL | MIC [6, 26]: 50 µg/mL | MIC [7, 27]: 25 µg/mL | MIC [8, 28]: 12.5 µg/mL | MIC [9, 29]: 25 µg/mL | MIC [10, 30]: 50 µg/mL | MIC [11, 31]: 50 µg/mL

PRT1338 (EMDPCTGLTPGGCSRNAECIKTGTGTHTCVCQQGWTGNGRDCS; listed as Homo sapiens)
MIC against E. coli BL21 [1, 12]: 25 µg/mL | MIC [2]: 50 µg/mL | MIC against A. hydrophila [3, 13]: 12.5 µg/mL | MIC against M. catarrhalis [4, 14]: 12.5 µg/mL | MIC against C. diversus [5, 15]: 12.5 µg/mL | MIC against S. marcescens [6, 16]: 25 µg/mL | MIC against E. cloacae [7, 17]: 50 µg/mL | MIC against P. vulgaris [8, 18]: 12.5 µg/mL | MIC against P. aeruginosa [9, 19]: 12.5 µg/mL | MIC against K. pneumonia [10, 20]: 25 µg/mL | MIC against P. mirabilis [11, 21]: 12.5 µg/mL

PRT562 (CQCHNNIDTTDPEACDKETGRCLKCLYHTEGEHCQFCRFGYYGDALQQDCRK; listed as Homo sapiens)
MIC against E. coli BL21 ([1]; 96-well plate, 37° C., 10 h): 25 µg/mL | MIC [2]: 50 µg/mL | MIC against A. hydrophila ([3]; 96-well plate, 37° C., 10 h): 25 µg/mL | MIC against M. catarrhalis ([4]; 96-well plate, 37° C., 10 h): 25 µg/mL | MIC against C. diversus ([5]; 96-well plate, 37° C., 10 h): 50 µg/mL | MIC against S. marcescens ([6]; 96-well plate, 37° C., 10 h): 50 µg/mL | MIC against E. cloacae ([7]; 96-well plate, 37° C., 10 h): 50 µg/mL | MIC against P. vulgaris ([8]; 96-well plate, 37° C., 10 h): 25 µg/mL | MIC against P. aeruginosa ([9]; 96-well plate, 37° C., 10 h): 50 µg/mL | MIC against K. pneumonia ([10]; 96-well plate, 37° C., 10 h): 25 µg/mL | MIC against P. mirabilis ([11]; 96-well plate, 37° C., 10 h): 12.5 µg/mL

PRT640 (DMDECQDPSSCIDGQCVNTEGSYNCFCTHPMVLDASE; listed as Homo sapiens)
MIC E. coli BL21 ([1]; 96-well plate, 37° C., 10 h): 25 µg/mL | MIC [2]: 12.5 µg/mL | MIC A. hydrophila ([3]; 96-well plate, 37° C., 10 h): 50 µg/mL | MIC M. catarrhalis ([4]; 96-well plate, 37° C., 10 h): 25 µg/mL | MIC C. diversus ([5]; 96-well plate, 37° C., 10 h): 12.5 µg/mL | MIC S. marcescens ([6]; 96-well plate, 37° C., 10 h): 25 µg/mL | MIC E. cloacae ([7]; 96-well plate, 37° C., 10 h): 25 µg/mL | MIC P. vulgaris ([8]; 96-well plate, 37° C., 10 h): 12.5 µg/mL | MIC P. aeruginosa ([9]; 96-well plate, 37° C., 10 h): 50 µg/mL | MIC K. pneumonia ([10]; 96-well plate, 37° C., 10 h): 12.5 µg/mL | MIC P. mirabilis ([11]; 96-well plate, 37° C., 10 h): 50 µg/mL

PRT187 (KVDRCTSNPCANGGQCLNRGPSRMCRCRPGFTGTYCE; listed as Homo sapiens)
MIC (μg/mL) E. coli BL21 [1, 22]: 12.5 µg/mL | MIC [2]: 25 µg/mL | MIC (μg/mL) A. hydrophila [3, 23]: 12.5 µg/mL | MIC (μg/mL) M. catarrhalis [4, 24]: 12.5 µg/mL | MIC (μg/mL) C. diversus [5, 25]: 25 µg/mL | MIC (μg/mL) S. marcescens [6, 26]: 25 µg/mL | MIC (μg/mL) E. cloacae [7, 27]: 25 µg/mL | MIC (μg/mL) P. vulgaris [8, 28]: 12.5 µg/mL | MIC (μg/mL) P. aeruginosa [9, 29]: 25 µg/mL | MIC (μg/mL) K. pneumonia [10, 30]: 12.5 µg/mL | MIC (μg/mL) P. mirabilis [11, 31]: 25 µg/mL

PRT1176 (NIDDCSPNNCSHGGTCQDLVNGFKCVCPPQWTGKTCQ; listed as Homo sapiens)
MIC E. coli BL21 [1, 32]: 50 µg/mL | MIC [2]: 12.5 µg/mL | MIC A. hydrophila [3, 32]: 25 µg/mL | MIC M. catarrhalis [4, 32]: 12.5 µg/mL | MIC C. diversus [5, 32]: 50 µg/mL | MIC S. marcescens [6, 32]: 12.5 µg/mL | MIC E. cloacae [7, 32]: 12.5 µg/mL | MIC P. vulgaris [8, 32]: 25 µg/mL | MIC P. aeruginosa [9, 32]: 12.5 µg/mL | MIC K. pneumonia [10, 32]: 50 µg/mL | MIC P. mirabilis [11, 32]: 50 µg/mL

PRT229 (DINECLTSSVCPEHSDCVNSMGSYSCSCQVGFISRNSTCE; listed as Homo sapiens)
MIC (μg/mL) E. coli BL21 [1, 22]: 25 µg/mL | MIC [2]: 50 µg/mL | MIC (μg/mL) A. hydrophila [3, 23]: 12.5 µg/mL | MIC (μg/mL) M. catarrhalis [4, 24]: 12.5 µg/mL | MIC (μg/mL) C. diversus [5, 25]: 12.5 µg/mL | MIC (μg/mL) S. marcescens [6, 26]: 12.5 µg/mL | MIC (μg/mL) E. cloacae [7, 27]: 12.5 µg/mL | MIC (μg/mL) P. vulgaris [8, 28]: 25 µg/mL | MIC (μg/mL) P. aeruginosa [9, 29]: 12.5 µg/mL | MIC (μg/mL) K. pneumonia [10, 30]: 12.5 µg/mL | MIC (μg/mL) P. mirabilis [11, 31]: 12.5 µg/mL

PRT901 (DINECVLSPCRHGASCQNTHGGYRCHCQAGYSGRNCE; listed as Homo sapiens)
MIC [1, 22]: 25 µg/mL | MIC [2]: 25 µg/mL | MIC [3, 23]: 12.5 µg/mL | MIC [4, 24]: 50 µg/mL | MIC [5, 25]: 25 µg/mL | MIC [6, 26]: 25 µg/mL | MIC [7, 27]: 25 µg/mL | MIC [8, 28]: 12.5 µg/mL | MIC [9, 29]: 12.5 µg/mL | MIC [10, 30]: 50 µg/mL | MIC [11, 31]: 25 µg/mL

PRT30 (PCDCYPVGSTSRSCAPHSGQCPCRPGALGRQCNSCDSPF; listed as Homo sapiens)
MIC (μg/mL) E. coli BL21 [1, 12]: 50 µg/mL | MIC [2]: 25 µg/mL | MIC (μg/mL) A. hydrophila [3, 13]: 12.5 µg/mL | MIC (μg/mL) M. catarrhalis [4, 14]: 50 µg/mL | MIC (μg/mL) C. diversus [5, 15]: 25 µg/mL | MIC (μg/mL) S. marcescens [6, 16]: 12.5 µg/mL | MIC (μg/mL) E. cloacae [7, 17]: 50 µg/mL | MIC (μg/mL) P. vulgaris [8, 18]: 25 µg/mL | MIC (μg/mL) P. aeruginosa [9, 19]: 12.5 µg/mL | MIC (μg/mL) K. pneumonia [10, 20]: 25 µg/mL | MIC (μg/mL) P. mirabilis [11, 21]: 12.5 µg/mL

PRT1088 (PVNPCCYYPCQHQGICVRFGLDRYQCDCTRTGYSGPNCT; listed as Homo sapiens)
MIC E. coli BL21 [1, 32]: 50 µg/mL | MIC [2]: 25 µg/mL | MIC A. hydrophila [3, 32]: 50 µg/mL | MIC M. catarrhalis [4, 32]: 25 µg/mL | MIC C. diversus [5, 32]: 50 µg/mL | MIC S. marcescens [6, 32]: 50 µg/mL | MIC E. cloacae [7, 32]: 50 µg/mL | MIC P. vulgaris [8, 32]: 25 µg/mL | MIC P. aeruginosa [9, 32]: 50 µg/mL | MIC K. pneumonia [10, 32]: 12.5 µg/mL | MIC P. mirabilis [11, 32]: 12.5 µg/mL
